The target of the experiment is T1, ABCG2 (Homo sapiens, UniProt Q9UNQ0).
T1 sequence (Q9UNQ0 1-655): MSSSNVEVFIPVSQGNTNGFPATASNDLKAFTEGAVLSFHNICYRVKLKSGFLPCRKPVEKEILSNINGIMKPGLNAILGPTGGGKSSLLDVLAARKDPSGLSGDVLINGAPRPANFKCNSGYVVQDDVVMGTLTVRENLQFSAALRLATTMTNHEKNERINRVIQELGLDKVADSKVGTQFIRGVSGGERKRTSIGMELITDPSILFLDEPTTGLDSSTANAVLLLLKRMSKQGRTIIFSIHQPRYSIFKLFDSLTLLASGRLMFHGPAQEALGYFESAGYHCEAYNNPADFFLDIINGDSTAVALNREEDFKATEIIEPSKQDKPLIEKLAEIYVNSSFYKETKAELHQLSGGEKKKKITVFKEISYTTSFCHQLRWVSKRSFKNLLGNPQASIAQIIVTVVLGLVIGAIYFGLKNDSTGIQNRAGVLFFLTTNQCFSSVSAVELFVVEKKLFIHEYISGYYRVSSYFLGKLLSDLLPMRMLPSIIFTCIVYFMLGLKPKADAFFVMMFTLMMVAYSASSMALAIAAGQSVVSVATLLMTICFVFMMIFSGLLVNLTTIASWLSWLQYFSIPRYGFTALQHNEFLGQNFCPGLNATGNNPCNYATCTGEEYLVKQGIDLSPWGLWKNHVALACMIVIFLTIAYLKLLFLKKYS
In words: stimulation of vanadate-sensitive ATPase activity in membrane vesicles. In kind it is biochemical.

Molecules are shown by their SMILES.

As for `O=C(CCCCCCNC(=O)c1cnc(N(c2ccccc2)c2ccccc2)nc1)NO` [ricolinostat], the EC50 was roughly 14.7 µM.

For the origin of these results see paper PMC7983170 (Biochemical pharmacology, 2018).
